Measurements reported in patent US20260308186A1, “STAT DEGRADERS AND USES THEREOF” (Recludix Pharma, Inc., priority 2023, published 2026).
Where two headings read alike, the source gives them in different places.

Key:
[1] = target: T1, pSTAT3 (Homo sapiens, UniProt P40763); test: MSD-pSTAT-PBMC Assay, pSTAT3 (IL-6 stimulated PBMC); assay type: cell-based
T1 construct: pY705-STAT3 MSD read-out
Excerpt: Cryopreserved Peripheral Blood Mononuclear Cells (PBMC) are from AllCells. Recombinant Human IL-4 and IL-6 are from Peprotech. Mouse monoclonal anti-STAT3 antibody, rabbit monoclonal anti-pY705-STAT3 antibody, rabbit monoclonal Anti-pY641-STAT6 antibody, and lysis buffer are from Cell Signaling Technology (CST). Mouse monoclonal anti-STAT6 antibody is from BioLegend. Assay plates, blocker, and anti-rabbit secondary antibody are from Meso Scale Discovery (MSD).
Cryopreserved PBMCs were thawed out and allowed to recover overnight in IMDM+10% heat-inactivated FBS prior to plating 50,000 (STAT3) or 25,000 (STAT6) cells per well in 96-well U-bottom tissue culture plates. Cells were treated with compound for 3 hrs. then stimulated with 10 ng/mL IL-6 (STAT3) or 1 ng/mL IL-4 (STAT6) for 10 min. Cells were then spun down and washed with ice-cold PBS prior to lysing the cell pellet with 1× lysis buffer (CST) with 1×HALT protease and phosphatase inhibitor cocktail (Thermo). Lysates were transferred to and incubated overnight at 4° C. with shaking in QuickPlex 96-well high bind assay plates (MSD) pre-coated overnight with 30 μL per well of 0.6 μg/mL mouse monoclonal anti-STAT3 antibody (STAT3) or 2 μg/mL mouse monoclonal anti-STAT6 antibody (STAT6) in 1×PBS, and pre-blocked for 1 hour with 3% Blocker-A (MSD). Captured protein in the assay plates were then washed and probed with 25 μL per well of 0.25 μg/ml rabbit monoclonal anti-pY705-STAT3 antibody (STAT3) or 0.18 μg/ml rabbit monoclonal Anti-pY641-STAT6 antibody (STAT6) in 1% Blocker-A for 1 hour at room temperature with shaking, then washed and probed with 25 ul per well of 1 ug/ml Sulfo-TAG Labeled Goat Anti-Rabbit Antibody (MSD) in 1% Blocker-A for 1 hour at room temperature with shaking. Assay plates were then washed and 150 μL of 1× Read Buffer-T (MSD) was added to each well prior to reading on an SQ120 MSD Plate Reader. Assay signal from each sample was subtracted by the signal from unstimulated control wells and normalized to DMSO control wells. IC50 values were calculated using Graph Pad Prism Dose-Response Nonlinear Regression with variable slope. For both pSTAT3 and pSTAT6 A=≤100 nM; B=>100-1000 nM; C=>1000-3000 nM; and D=>3 μM.

[2] = target: T2, pSTAT6 (Homo sapiens, UniProt P42226); test: MSD-pSTAT-PBMC Assay, pSTAT6 (IL-4 stimulated PBMC); assay type: cell-based
T2 construct: pY641-STAT6 MSD read-out
T2 sequence (P42226 1-847): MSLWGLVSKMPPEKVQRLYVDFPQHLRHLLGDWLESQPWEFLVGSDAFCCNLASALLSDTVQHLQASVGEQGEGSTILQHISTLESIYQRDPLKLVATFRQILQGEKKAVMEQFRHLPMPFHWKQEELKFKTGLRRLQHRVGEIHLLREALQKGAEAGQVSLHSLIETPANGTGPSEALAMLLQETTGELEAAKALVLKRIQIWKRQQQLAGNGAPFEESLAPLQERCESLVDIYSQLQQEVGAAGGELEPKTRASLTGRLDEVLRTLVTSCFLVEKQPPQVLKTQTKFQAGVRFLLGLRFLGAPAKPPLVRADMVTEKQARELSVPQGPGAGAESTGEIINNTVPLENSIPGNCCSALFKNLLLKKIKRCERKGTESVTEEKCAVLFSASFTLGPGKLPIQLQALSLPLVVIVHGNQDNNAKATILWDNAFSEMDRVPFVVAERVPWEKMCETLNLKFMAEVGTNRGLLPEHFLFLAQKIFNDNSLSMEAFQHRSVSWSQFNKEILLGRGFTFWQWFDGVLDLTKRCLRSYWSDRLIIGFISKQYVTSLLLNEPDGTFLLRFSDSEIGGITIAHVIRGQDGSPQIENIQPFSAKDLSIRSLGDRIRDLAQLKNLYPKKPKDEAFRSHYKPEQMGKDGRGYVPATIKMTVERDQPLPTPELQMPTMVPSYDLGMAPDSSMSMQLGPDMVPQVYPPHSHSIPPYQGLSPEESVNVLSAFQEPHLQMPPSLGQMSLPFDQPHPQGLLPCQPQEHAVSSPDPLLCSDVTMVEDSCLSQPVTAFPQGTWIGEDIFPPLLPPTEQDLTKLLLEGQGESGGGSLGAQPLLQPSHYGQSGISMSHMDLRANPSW
How it was run: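 Human PBMC were recovered overnight, treated 3 h with compound, then stimulated for 10 min with 10 ng/mL IL-6 (pSTAT3) or 1 ng/mL IL-4 (pSTAT6). Lysates were read by MSD sandwich immunoassay, with total STAT capture and pY705-STAT3 or pY641-STAT6 detection. Signal minus unstimulated wells was normalized to DMSO, and IC50 came from a variable-slope fit.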

[3] = read-out: pSTAT3 IC50, compound 3 hrs, then 10 ng/mL IL-6 for 10 min, pY705-STAT3
[4] = read-out: pSTAT6 IC50, compound 3 hrs, then 1 ng/mL IL-4 for 10 min, pY641-STAT6

T1 sequence (P40763 whole entry): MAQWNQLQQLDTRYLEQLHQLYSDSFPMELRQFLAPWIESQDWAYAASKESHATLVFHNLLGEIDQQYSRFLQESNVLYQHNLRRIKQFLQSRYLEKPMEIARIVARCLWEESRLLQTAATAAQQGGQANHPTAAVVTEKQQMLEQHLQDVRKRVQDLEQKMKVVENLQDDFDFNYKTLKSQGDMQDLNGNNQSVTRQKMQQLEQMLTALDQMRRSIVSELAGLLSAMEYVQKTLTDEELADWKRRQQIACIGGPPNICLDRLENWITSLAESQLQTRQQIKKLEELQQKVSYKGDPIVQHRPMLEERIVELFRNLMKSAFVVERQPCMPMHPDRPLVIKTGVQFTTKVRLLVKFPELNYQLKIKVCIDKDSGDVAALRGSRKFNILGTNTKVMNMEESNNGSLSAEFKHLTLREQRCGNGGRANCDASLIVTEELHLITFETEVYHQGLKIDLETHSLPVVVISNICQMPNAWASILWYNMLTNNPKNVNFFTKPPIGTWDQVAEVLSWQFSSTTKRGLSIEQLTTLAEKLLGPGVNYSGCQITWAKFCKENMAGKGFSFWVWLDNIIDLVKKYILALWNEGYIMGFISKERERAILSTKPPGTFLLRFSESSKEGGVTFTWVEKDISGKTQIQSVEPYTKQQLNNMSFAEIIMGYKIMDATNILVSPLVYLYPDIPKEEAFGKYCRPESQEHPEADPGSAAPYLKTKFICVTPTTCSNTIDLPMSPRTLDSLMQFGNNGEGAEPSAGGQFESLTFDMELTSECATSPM

| IC50 ([1]; compound 3 hrs, then 10 ng/mL IL-6 for 10 min, pY705-STAT3, read-out: pSTAT3 IC50) | IC50 ([2]; compound 3 hrs, then 1 ng/mL IL-4 for 10 min, pY641-STAT6, read-out: pSTAT6 IC50) | SMILES | IC50 [1, 3] | IC50 [2, 4] |
| --- | --- | --- | --- | --- |
| – | – | CN(C(=O)[C@@H]1CC[C@@H]2CCN(C(=O)CCCCCC#Cc3cccc4c3CN(C3CCC(=O)NC3=O)C4=O)C[C@H](NC(=O)c3cc4cc(C(F)(F)P(=O)(OCOC(=O)C(C)(C)C)OCOC(=O)C(C)(C)C)ccc4[nH]3)C(=O)N21)c1ccccc1 (stereo partly drawn) [Compound 2, ((((2-(((5S,8S,10aR)-3-(8-(2-(2,6-Dioxopiperidin-3-yl)-1-oxoisoindolin-4-yl)oct-7-ynoyl)-8-(methyl(phenyl)carbamoyl)-6-oxodecahydropyrrolo[1,2-a][1,5]diazocin-5-yl)carbamoyl)-1H-indol-5-yl)difluoromethyl)phosphoryl)bis(oxy))bis(methylene) bis(2,2-dimethylpropanoate)] | 1 to 3 µM | 1 to 3 µM |
| – | – | CC(=O)N1CC[C@H]2CC[C@@H](C(=O)Nc3ccc(-c4ccc(NC(=O)CCCCCC#Cc5cccc6c5CN(C5CCC(=O)NC5=O)C6=O)cc4)cc3)N2C(=O)[C@@H](NC(=O)c2cc3cc(C(F)(F)P(=O)(OCOC(=O)C(C)(C)C)OCOC(=O)C(C)(C)C)ccc3[nH]2)C1 (stereo partly drawn) [Compound 4, ((((2-(((5S,8S,10aR)-3-acetyl-8-((4′-(8-(2-(2,6-dioxopiperidin-3-yl)-1-oxoisoindolin-4-yl)oct-7-ynamido)-[1,1′-biphenyl]-4-yl)carbamoyl)-6-oxodecahydropyrrolo[1,2-a][1,5]diazocin-5-yl)carbamoyl)-1H-indol-5-yl)difluoromethyl)phosphoryl)bis(oxy))bis(methylene) bis(2,2-dimethylpropanoate)] | 1 to 3 µM | > 3 µM |
| – | – | CCCC(=O)SCCOP(=O)(OCCSC(=O)CCC)C(F)(F)c1ccc2ccc(C(=O)N[C@H]3CN(C(=O)c4n[nH]c5ccc(C)cc45)CC[C@H]4CC[C@@H](C(=O)NCCCCCCCCC(=O)N[C@H](C(=O)N5C[C@H](O)C[C@H]5C(=O)N[C@@H](C)c5ccc(-c6scnc6C)cc5)C(C)(C)C)N4C3=O)cc2c1 [Compound 8, S,S′-((((difluoro(7-(((5S,8S,10aR)-8-((9-(((S)-1-((2S,4R)-4-hydroxy-2-(((S)-1-(4-(4-methylthiazol-5-yl)phenyl)ethyl)carbamoyl)pyrrolidin-1-yl)-3,3-dimethyl-1-oxobutan-2-yl)amino)-9-oxononyl)carbamoyl)-3-(5-methyl-1H-indazole-3-carbonyl)-6-oxodecahydropyrrolo[1,2-a][1,5]diazocin-5-yl)carbamoyl)naphthalen-2-yl)methyl)phosphoryl)bis(oxy))bis(ethane-2,1-diyl)) dibutanethioate] | > 3 µM | 1 to 3 µM |
| – | – | CCCC(=O)SCCOP(=O)(OCCSC(=O)CCC)C(F)(F)c1ccc2ccc(C(=O)N[C@H]3CN(C(=O)c4n[nH]c5ccc(C)cc45)CC[C@H]4CC[C@@H](C(=O)NCCCCCCC#Cc5cccc6c5CN(C5CCC(=O)NC5=O)C6=O)N4C3=O)cc2c1 (stereo partly drawn) [Compound 10, S,S′-(((((7-(((5S,8S,10aR)-8-((8-(2-(2,6-dioxopiperidin-3-yl)-1-oxoisoindolin-4-yl)oct-7-yn-1-yl)carbamoyl)-3-(5-methyl-1H-indazole-3-carbonyl)-6-oxodecahydropyrrolo[1,2-a][1,5]diazocin-5-yl)carbamoyl)naphthalen-2-yl)difluoromethyl)phosphoryl)bis(oxy))bis(ethane-2,1-diyl)) dibutanethioate] | > 3 µM | < 0.1 µM |
| – | – | CCCC(=O)SCCOP(=O)(OCCSC(=O)CCC)C(F)(F)c1ccc2ccc(C(=O)N[C@H]3CN(C(=O)c4n[nH]c5ccc(C)cc45)CC[C@H]4CC[C@@H](C(=O)N(C)CCCCCCC#Cc5cccc6c5CN(C5CCC(=O)NC5=O)C6=O)N4C3=O)cc2c1 (stereo partly drawn) [Compound 12, S,S′-(((((7-(((5S,8S,10aR)-8-((8-(2-(2,6-dioxopiperidin-3-yl)-1-oxoisoindolin-4-yl)oct-7-yn-1-yl)(methyl)carbamoyl)-3-(5-methyl-1H-indazole-3-carbonyl)-6-oxodecahydropyrrolo[1,2-a][1,5]diazocin-5-yl)carbamoyl)naphthalen-2-yl)difluoromethyl)phosphoryl)bis(oxy))bis(ethane-2,1-diyl)) dibutanethioate] | > 3 µM | < 0.1 µM |
| – | – | CCCOC(=O)[C@H](C)NP(=O)(Oc1ccccc1)C(F)c1ccc2ccc(C(=O)N[C@H]3CN(C(=O)c4n[nH]c5ccc(C)cc45)CC[C@H]4CC[C@@H](C(=O)N(C)CCCCCCC#Cc5cccc6c5CN(C5CCC(=O)NC5=O)C6=O)N4C3=O)cc2c1 (stereo partly drawn) [Compound 13, propyl (((7-(((5S,8S,10aR)-8-((8-(2-(2,6-dioxopiperidin-3-yl)-1-oxoisoindolin-4-yl)oct-7-yn-1-yl)(methyl)carbamoyl)-3-(5-methyl-1H-indazole-3-carbonyl)-6-oxodecahydropyrrolo[1,2-a][1,5]diazocin-5-yl)carbamoyl)naphthalen-2-yl)fluoromethyl)(phenoxy)phosphoryl)-L-alaninate] | > 3 µM | > 3 µM |
| > 3 µM | < 0.1 µM | Cc1ccc2onc(C(=O)N3CC[C@H]4CC[C@@H](C(=O)N(C)CCCCCCC#Cc5cccc6c5CN(C5CCC(=O)NC5=O)C6=O)N4C(=O)[C@@H](NC(=O)c4ccc5ccc(C(F)(F)P(=O)(OCCSC(=O)CC(C)C)OCCSC(=O)CC(C)C)cc5c4)C3)c2c1 (stereo partly drawn) [Compound 21, S,S′-(((((7-(((5S,8S,10aR)-8-((8-(2-(2,6-dioxopiperidin-3-yl)-1-oxoisoindolin-4-yl)oct-7-yn-1-yl)(methyl)carbamoyl)-3-(5-methylbenzo[d]isoxazole-3-carbonyl)-6-oxodecahydropyrrolo[1,2-a][1,5]diazocin-5-yl)carbamoyl)naphthalen-2-yl)difluoromethyl)phosphoryl)bis(oxy))bis(ethane-2,1-diyl)) bis(3-methylbutanethioate)] | – | – |
